# Experimental data reported in patent US5510368A, “N-benzyl-3-indoleacetic acids as antiinflammatory drugs” (priority 1995, dated 1996).
# Counter-ions that a name gives are not always drawn.
# Columns and labels:
# cyclooxygenase-1 = cyclooxygenase-1 (Homo sapiens, UniProt P23219); assay: Inhibition of cyclooxygenase activity, whole cell cyclooxygenase assay (COX-1, U-937 cells, PGE2 by radioimmunoassay); format: cell-based; details: human U-937 cells; PGE2 synthesis; 10 μM arachidonic acid
# Rat paw edema = assay: Rat Paw Edema Assay (carrageenan); format: in vivo, Male Sprague-Dawley rats; details: po, 1 h before subplantar carrageenan (500 μg per paw); paw volume at 3 h
# Protocol: Male Sprague-Dawley rats (150-200 g) were fasted overnight and were given po either vehicle (1% methocel or 5% Tween 80) or a test compound. One hour later, a line was drawn using a permanent marker at the level above the ankle in one hind paw to define the area of the paw to be monitored. The paw volume (VO) was measured using a plethysmometer (Ugo-B asile, Italy) based on the principle of water displacement. The animals were then injected subplantarly with 50 μl of 1% carrageenan solution in saline (FMC Corp, Maine) into the paw using an insulin syringe with a 25-gauge needle (i.e. 500 μg carrageenan per paw). Three hours later, the paw is volume (V3) was measured and the increases in paw volume (V3 -VO) were calculated. The animals were sacrificed by CO2 aphyxiation and the absence or presence of stomach lesions scored. Data were compared with the vehicle-control values and percent inhibition calculated. […] All treatment groups were coded to eliminate observer bias.
# cyclooxygenase-2 = biological target: T1, cyclooxygenase-2 (Homo sapiens, UniProt P35354); assay: cell-based; details: human osteosarcoma 143 cells; PGE2 synthesis; 10 μM arachidonic acid; read-out: COX-2 (IC50)
# T1 sequence (P35354 18-604): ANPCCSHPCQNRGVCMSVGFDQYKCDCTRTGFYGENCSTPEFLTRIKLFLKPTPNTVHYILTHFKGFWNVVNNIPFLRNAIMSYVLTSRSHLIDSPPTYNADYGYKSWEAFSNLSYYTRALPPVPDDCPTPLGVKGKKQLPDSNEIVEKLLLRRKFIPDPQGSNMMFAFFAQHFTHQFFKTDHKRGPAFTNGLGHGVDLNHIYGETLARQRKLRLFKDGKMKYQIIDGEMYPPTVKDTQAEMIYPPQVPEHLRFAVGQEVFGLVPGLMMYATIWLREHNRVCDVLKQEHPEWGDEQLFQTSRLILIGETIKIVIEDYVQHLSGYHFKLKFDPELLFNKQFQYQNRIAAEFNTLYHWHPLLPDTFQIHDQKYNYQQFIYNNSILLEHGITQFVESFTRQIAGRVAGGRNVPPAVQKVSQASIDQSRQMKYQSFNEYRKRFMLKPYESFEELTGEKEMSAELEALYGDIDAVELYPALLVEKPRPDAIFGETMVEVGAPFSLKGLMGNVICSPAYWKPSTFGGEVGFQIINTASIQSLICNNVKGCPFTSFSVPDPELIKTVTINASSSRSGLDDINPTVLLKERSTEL
# Protocol: Compounds were tested as inhibitors of cyclooxygenase activity in whole cell cyclooxygenase assays. Both of these assays measured prostaglandin E2 synthesis in response to arachidonic acid, using a radioimmunoassay. Cells used for these assays were human osteosarcoma 143 cells (which specifically express cyclooxygenase-2) and human U-937 cells (which specifically express cyclooxygenase-1 ). In these assays, 100% activity is defined as the difference between prostaglandin E2 synthesis in the absence and presence of arachidonate.
# For cyclooxygenase assays, osteosarcoma cells are cultured in 1 mL of media in 24-well multidishes (Nunclon) until confluent (1-2×10^5 cells/well). U-937 cells are grown in spinner flasks and resuspended to a final density of 1.5×10^6 cells/mL in 24-well multidishes (Nunclon). Following washing and resuspension of osteosarcoma and U-937 cells in 1 mL of Hanks balanced salts solution (HBSS), 2 μL of a DMSO solution of test compound or DMSO vehicle is added, and samples gently mixed. All assays are performed in triplicate. Samples and then incubated for 5 or 15 minutes at 37° C., prior to the addition of arachidonic acid. Arachidonic acid (peroxide-free, Cayman Chemical) is prepared as a 10mM stock solution in ethanol and further diluted 10-fold in HBSS. An aliquot of 10 μL of this diluted solution is added to the cells to give a final arachidonic acid concentration of 10 μM. Control samples are incubated with ethanol vehicle instead of arachidonic acid. Samples are again gently mixed and incubated for a further 10 min. at 37° C. For osteosarcoma cells, reactions are then stopped by the addition of 100 μL of 1 N HCl with mixing and by the rapid removal of the solution from cell monolayers. For U-937 cells, reactions are stopped by the addition of 100 μL of 1N HCl, with mixing. Samples are then neutralized by the addition of 100 μL of 1N NaOH and PGE2 levels measured by radioimmunoassay.
# In the assay, inhibition is determined by measuring the amount of prostaglandin E2 (PGE2) synthesized in the presence of arachidonic acid, cyclooxygenase-1 or cyclooxygenase-2 and a putative inhibitor. The IC50 values represent the concentration of putative inhibitor required to return PGE2 synthesis to 50% of that obtained as compared to the uninhibited control.
# Sequence of cyclooxygenase-1 (P23219 24-599): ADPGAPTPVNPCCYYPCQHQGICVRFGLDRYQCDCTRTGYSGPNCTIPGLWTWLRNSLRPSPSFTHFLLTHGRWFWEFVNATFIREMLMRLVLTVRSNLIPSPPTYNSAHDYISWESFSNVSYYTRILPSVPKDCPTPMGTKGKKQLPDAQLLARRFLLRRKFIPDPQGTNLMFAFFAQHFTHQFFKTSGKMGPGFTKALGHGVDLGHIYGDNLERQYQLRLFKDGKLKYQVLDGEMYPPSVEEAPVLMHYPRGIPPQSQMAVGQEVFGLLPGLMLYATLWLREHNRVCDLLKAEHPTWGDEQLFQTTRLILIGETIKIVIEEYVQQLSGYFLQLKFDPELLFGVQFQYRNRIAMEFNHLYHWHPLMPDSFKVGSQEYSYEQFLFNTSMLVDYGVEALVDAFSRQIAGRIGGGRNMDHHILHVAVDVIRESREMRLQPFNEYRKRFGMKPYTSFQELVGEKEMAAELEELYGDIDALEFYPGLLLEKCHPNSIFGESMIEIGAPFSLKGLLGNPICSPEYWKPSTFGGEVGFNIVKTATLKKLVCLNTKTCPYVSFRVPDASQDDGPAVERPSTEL
SMILES,IC50 (cyclooxygenase-1),IC50 (cyclooxygenase-2),Rat paw edema (ED30) (Rat paw edema)
Cc1c(C(C)C(=O)[O-])c2cc(Br)ccc2n1Cc1ccc(Br)cc1.[Na+] (racemic) [sodium salt],10 µM,0.0019 µM,
Cc1c(C(C)C(=O)[O-])c2cc(Br)ccc2n1Cc1ccc(Br)cc1.[Na+] (racemic),,,0.26 mg/kg

# Further lines, with some results ahead:
IC50 (cyclooxygenase-1),IC50 (cyclooxygenase-2),SMILES,Rat paw edema (ED30) (Rat paw edema)
32 µM,0.001 µM,"Cc1c([C@@H](C)C(=O)O)c2cc(Br)ccc2n1Cc1ccc(Br)cc1 [Example 3, (R)-(-)-2-(5-Bromo-1-(4-bromobenzyl)-2-methyl-1H-indol-3-yl)propionic acid, sodium salt]",0.57 mg/kg
1.1 µM,0.013 µM,"Cc1c([C@H](C)C(=O)O)c2cc(Br)ccc2n1Cc1ccc(Br)cc1 [Example 2, sodium salt]",0.28 mg/kg
10 µM,0.01 µM,"COc1ccc2c(c1)c(C(C)C(=O)O)c(C)n2Cc1ccc(Cl)cc1 (stereo not drawn) [MK-555, α-(1-p-chlorobenzyl-2-methyl-5-methoxy-3-indolyl)propionic acid, reference compound]",3 mg/kg
